The assay relates to recombinant NL-Rluc virus. The assay is described as follows: Inhibition of HIV replication (NL-RLuc virus in MT-2 cells, luciferase readout). It is filed as cell-based. The conditions noted are these: Human immunodeficiency virus 1, MT2, 120 h, 5 days of incubation, 10% FBS.
For `Cc1nc2cc3nn2c(c1[C@H](OC(C)(C)C)C(=O)O)N1CCC(C)(CC1)OCCCCOc1ccc(Cl)cc1-c1cccc-3c1` [Example 32, (2S)-2-(tert-Butoxy)-2-{17-chloro-4,27-dimethyl-21,26-dioxa-1,5,7,8-tetraazahexacyclo[25.2.2.1^6,^9.1^10,^14.0^2,^7.0^15,^20]tritriaconta-2,4,6(33),8,10(32),11,13,15(20),16,18-decaen-3-yl}acetic acid], the EC50 was 9 nM.

For `Cc1ccc2c(c1)-c1cccc(c1)-c1cc3nc(C)c([C@H](OC(C)(C)C)C(=O)O)c(n3n1)N1CCC(C)(CC1)OCC=CCO2` [Example 33, (2S)-2-(tert-Butoxy)-2-[4,17,27-trimethyl-21,26-dioxa-1,5,7,8-tetraazahexacyclo[25.2.2.1^6,^9.1^10,^14.0^2,^7.0^15,^20]tritriaconta-2,4,6(33),8,10(32),11,13,15(20),16,18,23-undecaen-3-yl]acetic acid], the EC50 was 8 nM.

As to `Cc1ccc2c(c1)-c1cccc(c1)-c1cc3nc(C)c([C@H](OC(C)(C)C)C(=O)O)c(n3n1)N1CCC(C)(CC1)OC=CCCO2` [Example 34, (2S)-2-(tert-Butoxy)-2-[4,17,27-trimethyl-21,26-dioxa-1,5,7,8-tetraazahexacyclo[25.2.2.1^6,^9.1^10,^14.0^2,^7.0^15,^20]tritriaconta-2,4,6(33),8,10(32),11,13,15(20),16,18,24-undecaen-3-yl]acetic acid], the EC50 amounted to 14 nM. Consider `Cc1ccc2c(c1)-c1cccc(c1)-c1cc3nc(C)c([C@H](OC(C)(C)C)C(=O)O)c(n3n1)N1CCC(C)(CC1)OCCCCO2` [Example 35, (2S)-2-(tert-Butoxy)-2-{4,17,27-trimethyl-21,26-dioxa-1,5,7,8-tetraazahexacyclo[25.2.2.1^6,^9.1^10,^14.0^2,^7.0^15,^20]tritriaconta-2,4,6(33),8,10(32),11,13,15(20),16,18-decaen-3-yl}acetic acid], for which the EC50 was found to be 10 nM. Take `Cc1nc2cc3nn2c(c1[C@H](OC(C)(C)C)C(=O)O)N1CCC(C)(CC1)OC/C=C/CCc1ccncc1-c1cccc-3c1` [Example 36, (2S)-2-(tert-Butoxy)-2-[(23E)-4,27-dimethyl-26-oxa-1,5,7,8,17-pentaazahexacyclo[25.2.2.1^6,^9.1^10,^14.0^2,^7.0^15,^20]tritriaconta-2,4,6(33),8,10(32),11,13,15(20),16,18,23-undecaen-3-yl]acetic acid]: the half-maximal effective concentration (EC50) stood at 34 nM.

Regarding `Cc1nc2cc3nn2c(c1[C@H](OC(C)(C)C)C(=O)O)N1CCC(C)(CC1)OC/C=C\CCc1ccncc1-c1cccc-3c1` [Example 37, (2S)-2-(tert-Butoxy)-2-[(23Z)-4,27-dimethyl-26-oxa-1,5,7,8,17-pentaazahexacyclo[25.2.2.1^6,^9.1^10,^14.0^2,^7.0^15,^20]tritriaconta-2,4,6(33),8,10(32), 11, 13, 15(20),16,18,23-undecaen-3-yl]acetic acid], the half-maximal effective concentration (EC50) turned out to be 2 nM. Consider `Cc1nc2cc3nn2c(c1[C@H](OC(C)(C)C)C(=O)O)N1CCC(C)(CC1)OCCCCCc1ccncc1-c1cccc-3c1` [Example 38, (2S)-2-(tert-Butoxy)-2-{4,27-dimethyl-26-oxa-1,5,7,8,17-pentaazahexacyclo[25.2.2.1^6,^9.1^10,^14.0^2,^7.0^15,^20]tritriaconta-2,4,6(33),8,10(32), 11, 13, 15 (20),16,18-decaen-3-yl}acetic acid], for which the EC50 was found to be 2 nM. Regarding `Cc1nc2cc3nn2c(c1[C@H](OC(C)(C)C)C(=O)O)N1CCC(C)(/C=C/C=C\CCc2ccccc2-c2cccc-3c2)CC1` [Example 39, (2S)-2-(tert-Butoxy)-2-[(23Z,25E)-4,27-dimethyl-1,5,7,8-tetraazahexacyclo[25.2.2.1^6,^9.1^10,^14.0^2,^7.0^15,^20]tritriaconta-2,4,6(33),8,10(32),11,13, 15(20), 16,18,23,25-dodecaen-3-yl]acetic acid], the concentration for a half-maximal effect (EC50) worked out at 118 nM. `Cc1nc2cc3nn2c(c1[C@H](OC(C)(C)C)C(=O)O)N1CCC(C)(/C=C/C=C/CCc2ccccc2-c2cccc-3c2)CC1` [Example 40, (2S)-2-(tert-Butoxy)-2-[(23E,25E)-4,27-dimethyl-1,5,7,8-tetraazahexacyclo[25.2.2.1^6,^9.1^10,^14.0^2,^7.0^15,^20]tritriaconta-2,4,6(33),8,10(32),11,13, 15(20), 16,18,23,25-dodecaen-3-yl]acetic acid]: the EC50 came out at 34 nM. Regarding `Cc1nc2cc3nn2c(c1[C@H](OC(C)(C)C)C(=O)O)N1CCC(C)(CCCCCCc2ccccc2-c2cccc-3c2)CC1` [Example 41, (2S)-2-(tert-Butoxy)-2-{4,27-dimethyl-1,5,7,8-tetraazahexacyclo[25.2.2.1^6,^9.1^10,^14.0^2,^7.0^15,^20]tritriaconta-2,4,6(33),8,10(32), 11,13,15(20),16,18-decaen-3-yl}acetic acid], the concentration giving a half-maximal response (EC50) is 180 nM. Under `Cc1nc2cc3nn2c(c1[C@H](OC(C)(C)C)C(=O)O)N1CCC(C)(/C=C/C=C\COc2ccc(Cl)cc2-c2cccc-3c2)CC1` [Example 42, (2S)-2-(tert-Butoxy)-2-[(23Z,25E)-17-chloro-4,27-dimethyl-21-oxa-1,5,7,8-tetraazahexacyclo[25.2.2.1^6,^9.1^10,^14.0^2,^7.0^15,^20]tritriaconta-2,4,6(33),8,10(32), 11, 13, 15(20),16,18,23,25-dodecaen-3-yl]acetic acid] stands 35 nM; under `Cc1nc2cc3nn2c(c1[C@H](OC(C)(C)C)C(=O)O)N1CCC(C)(/C=C/C=C/COc2ccc(Cl)cc2-c2cccc-3c2)CC1` [Example 43, (2S)-2-(tert-Butoxy)-2-[(23E,25E)-17-chloro-4,27-dimethyl-21-oxa-1,5,7,8-tetraazahexacyclo[25.2.2.1^6,^9.1^10,^14.0^2,^7.0^15,^20]tritriaconta-2,4,6(33),8,10(32), 11, 13, 15(20),16,18,23,25-dodecaen-3-yl]acetic acid], 134 nM. As for `Cc1nc2cc3nn2c(c1[C@H](OC(C)(C)C)C(=O)O)N1CCC(C)(CCCCCOc2ccc(Cl)cc2-c2cccc-3c2)CC1` [Example 44, (2S)-2-(tert-Butoxy)-2-{17-chloro-4,27-dimethyl-21-oxa-1,5,7,8-tetraazahexacyclo[25.2.2.1^6,^9.1^10,^14.0^2,^7.0^15,^20]tritriaconta-2,4, 6(33), 8, 10(32), 11, 13, 15 (20),16,18-decaen-3-yl}acetic acid], the concentration for a half-maximal effect (EC50) is 41 nM.

Turning to `Cc1nc2cc3nn2c(c1[C@H](OC(C)(C)C)C(=O)O)N1CCC(C)(/C=C/CCCOc2ccc(Cl)cc2-c2cccc-3c2)CC1` [Example 45, (2S)-2-(tert-Butoxy)-2-[(25E)-17-chloro-4,27-dimethyl-21-oxa-1,5,7,8-tetraazahexacyclo[25.2.2.1^6,^9.1^10,^14.0^2,^7.0^15,^20]tritriaconta-2,4,6(33),8,10(32),11,13,15(20),16,18,25-undecaen-3-yl]acetic acid], the EC50 amounted to 33 nM.

As to `Cc1nc2cc3nn2c(c1[C@H](OC(C)(C)C)C(=O)O)N1CCC(C)(CC1)OCCCCCc1ncccc1-c1cccc-3c1` [Example 46, (2S)-2-(tert-Butoxy)-2-{4,27-dimethyl-26-oxa-1,5,7,8,19-pentaazahexacyclo[25.2.2.1^6,^9.1^10,^14.0^2,^7.0^15,^20]tritriaconta-2,4,6(33),8,10(32),11,13,15(20),16,18-decaen-3-yl}acetic acid], the EC50 turned out to be 10 nM.

The term EC50 denotes the midpoint of the concentration-response curve.

Values taken from patent US8906929B2, “Inhibitors of human immunodeficiency virus replication” (priority 2012, dated 2014).
